# Measured values: US20100119599A1 (ARCHER PHARMACEUTICALS, INC., priority 2006, published 2010)
# Tests used:
# Aβ1-40 = assay: Measurement of Aβ1-40 in culture medium of 7W WT APP751 CHO cells by ELISA; type: cell-based, Chinese hamster; settings: CHO cells that overexpress APP751; zero = below the detection limit of the assay
# Description: (§1) Chinese hamster ovary (CHO) cells, stably transfected with human APP751 (7W WT APP751 CHO cells) were used. See, e.g., Koo and Squazzo, J. Biol. Chem., 269(26): 17386-17389, 1994. The cells were maintained in DMEM medium supplemented with 10% fetal bovine serum and 1× mixture of penicillin/streptomycin/fungizone/glutamine mixture (Cambrex, Md.) geneticin as selecting agent in 75 cm^2 cell culture flasks. The 7W WT APP751 CHO cells were plated in 96-well cell culture plates in quadruplicate, containing 200 microliters of culture medium, for 18 hours at 37° C. and 5% CO2. All test compounds were placed in dimethyl sulfoxide (DMSO) before being added to the cultured confluent 7W WT APP751 CHO cells to a concentration of the test compound of 5 μM. The culture medium was collected and diluted before being assayed by ELISAs for Aβ1-40 at 10-fold dilution and Aβ1-42 at 2-fold dilution, respectively. Concentrations of Aβ1-40 and Aβ1-42, expressed in pg/ml, were determined using commercially available ELISAs (Biosource, Calif.) in a colorimetric assay using labeled antibodies detected spectrophotometrically. For compounds with an identification beginning “RI”, the compounds were tested at a concentration of 10 μM for 24 hours. Control cells were treated with DMSO containing no compound. The percentage reduction in levels of Aβ1-40 and Aβ1-42 as compared to control cells not exposed to the test compounds are reported for the compounds in Tables 1, 2, and 3, supra. An entry of “0” indicates no detectable amount of Aβ1-40 or Aβ1-42 according to the assay conditions. The data in Tables 1, 2, and 3 may be rounded to the nearest 0.1%.
# Aβ1-42 = assay: Measurement of Aβ1-42 in culture medium of 7W WT APP751 CHO cells by ELISA; type: cell-based, Chinese hamster; settings: CHO cells that overexpress APP751; zero = below the detection limit of the assay
# Description: as §1
# 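Note: 5 µM test compound but RI-coded compounds at 10 µM for 24 hours.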
SMILES,Aβ1-40 (% of control) (Aβ1-40),Aβ1-42 (% of control) (Aβ1-42)
N#CC1=C(N)NC(SCC(N)=O)=C(C#N)C1c1ccccc1Br (centres unmarked) [RI_1],93.2 % of control,75.4 % of control
N#CC1=C(N)NC(SCC(N)=O)=C(C#N)C1c1ccccc1F (centres unmarked) [RI_2],100.9 % of control,44.4 % of control
N#CC1=C(N)NC(SCC(N)=O)=C(C#N)C1c1ccc(Cl)cc1 (centres unmarked) [RI_3],97.4 % of control,51.2 % of control
N#CC1=C(N)NC(SCC(N)=O)=C(C#N)C1c1cccs1 (centres unmarked) [RI_4],92.2 % of control,64.7 % of control
CSC1=C(C#N)C(c2ccccc2)C(C(=O)Nc2ccc(Cl)cc2)=C(C)N1 (centres unmarked) [RI_5],81.4 % of control,82.2 % of control
CC1=C(C(=O)Nc2ccccc2)C(c2ccsc2)C(C#N)=C(SCC(=O)Nc2ccccc2)N1 (centres unmarked) [RI_6],77.7 % of control,65.1 % of control
CC1=C(C(=O)Nc2ccccc2)C(c2cccs2)C(C#N)=C(SCC(=O)Nc2ccc(Oc3ccccc3)cc2)N1 (centres unmarked) [RI_8],46.1 % of control,26.4 % of control
CCOc1ccc(NC(=O)CSC2=C(C#N)C(c3cccs3)C(C(=O)Nc3ccccc3)=C(C)N2)cc1 (centres unmarked) [RI_9],56.3 % of control,27.6 % of control
CC1=C(C(=O)Nc2ccc(Cl)cc2)C(c2cccs2)C(C#N)=C(SCC(=O)Nc2cccc(C)c2)N1 (centres unmarked) [RI_10],78.8 % of control,70.6 % of control
CC1=C(C(=O)Nc2ccccc2)C(c2cccs2)C(C#N)=C(SCC(=O)Nc2cc(C)cc(C)c2)N1 (centres unmarked) [RI_11],52.1 % of control,35.8 % of control
CC1=C(C(=O)Nc2ccccc2)C(c2cccs2)C(C#N)=C(SCC(=O)Nc2ccccc2F)N1 (centres unmarked) [RI_12],68.4 % of control,82.5 % of control
CC1=C(C(=O)Nc2ccccc2)C(c2cccs2)C(C#N)=C(SCC(=O)Nc2cccc(F)c2)N1 (centres unmarked) [RI_13],53.8 % of control,41.3 % of control
CC1=C(C(=O)Nc2ccc(Cl)cc2)C(c2ccsc2)C(C#N)=C(SCC(=O)Nc2cccc(C)c2)N1 (centres unmarked) [RI_14],56.3 % of control,64.1 % of control
COc1ccc(CCNC(=O)CSC2=C(C#N)C(c3cccs3)C(C(=O)Nc3ccccc3)=C(C)N2)cc1OC (centres unmarked) [RI_15],74.9 % of control,41.2 % of control
CC1=C(C(=O)Nc2ccccc2)C(c2ccccc2)C(C#N)=C(SCC(=O)Nc2ccccc2C)N1 (centres unmarked) [RI_16],64.2 % of control,105 % of control
CC1=C(C(=O)Nc2ccccc2)C(c2cccs2)C(C#N)=C(SCC(=O)NCCC(C)(C)C)N1 (centres unmarked) [RI_17],18.2 % of control,24.1 % of control
COc1cc(CNC(=O)CSC2=C(C#N)C(c3cccs3)C(C(=O)Nc3ccccc3)=C(C)N2)cc(OC)c1OC (centres unmarked) [RI_18],49.2 % of control,44.1 % of control
CC1=C(C(=O)Nc2ccccc2)C(c2cccs2)C(C#N)=C(SCC(=O)NCCc2ccc(Br)cc2)N1 (centres unmarked) [RI_19],35.4 % of control,44.4 % of control
CC1=C(C(=O)Nc2ccccc2)C(c2cccs2)C(C#N)=C(SCC(=O)NCc2ccc(Br)cc2)N1 (centres unmarked) [RI_20],45.6 % of control,41.9 % of control
CC1=C(C(=O)Nc2ccccc2)C(c2cccs2)C(C#N)=C(SCC(=O)NC2CCC(C)CC2)N1 (centres unmarked) [RI_21],18.7 % of control,22.1 % of control
CC1=C(C(=O)Nc2ccccc2)C(c2cccs2)C(C#N)=C(SCC(=O)NCc2ccccc2)N1 (centres unmarked) [RI_22],60.9 % of control,47.6 % of control
CCCCNC(=O)CSC1=C(C#N)C(c2cccs2)C(C(=O)Nc2ccccc2)=C(C)N1 (centres unmarked) [RI_23],49.3 % of control,35.9 % of control
CC1=C(C(=O)Nc2ccccc2)C(c2cccs2)C(C#N)=C(SCC(=O)NC2CCC2)N1 (centres unmarked) [RI_24],80.8 % of control,44.1 % of control

SMILES,Aβ1-40 (% of control) (Aβ1-40),Aβ1-42 (% of control) (Aβ1-42)
CC1=C(C(=O)Nc2ccccc2)C(c2cccs2)C(C#N)=C(SCC(=O)NC2CCCCC2)N1 (centres unmarked) [RI_25],55.9 % of control,36.5 % of control
CCCCCCNC(=O)CSC1=C(C#N)C(c2cccs2)C(C(=O)Nc2ccccc2)=C(C)N1 (centres unmarked) [RI_26],37.6 % of control,26.7 % of control
CC1=C(C(=O)Nc2ccccc2)C(c2cccs2)C(C#N)=C(SCC(=O)NCCc2ccccc2)N1 (centres unmarked) [RI_27],34.4 % of control,26.5 % of control
CC1=C(C(=O)Nc2ccccc2)C(c2cccs2)C(C#N)=C(S)N1 (centres unmarked) [RI_28],77.1 % of control,68.5 % of control
CC1=C(C(=O)Nc2ccccc2)C(c2ccsc2)C(C#N)=C(S)N1 (centres unmarked) [RI_29],79.7 % of control,100 % of control
CC1=C(C(N)=O)C(c2ccccc2)C(C#N)=C(SCC(=O)Nc2cccc(C)c2)N1 (centres unmarked) [RI_30],94.9 % of control,48.2 % of control
CC1=C(C(=O)Nc2ccc(Cl)cc2)C(c2ccccc2C)C(C#N)=C(SCC(=O)Nc2cccc(C)c2)N1 (centres unmarked) [RI_31],53.9 % of control,73.3 % of control
CC1=C(C(=O)Nc2ccccc2)C(c2cccs2)C(C#N)=C(SCC(=O)N2CCCCCCCCCCC2)N1 (centres unmarked) [RI_32],62.9 % of control,62.8 % of control
CC1=C(C(=O)Nc2ccccc2)C(c2ccsc2)C(C#N)=C(SCC(=O)N2CCCCCCCCCCC2)N1 (centres unmarked) [RI_33],11.9 % of control,13.7 % of control
CC1=C(C(=O)Nc2ccccc2)C(Cc2ccccc2)C(C#N)=C(SCC(=O)Nc2cccc(C)c2)N1 (centres unmarked) [RI_34],31.4 % of control,26.1 % of control
CCCCCCNC(=O)CSC1=C(C#N)C(c2ccccc2)C(C(=O)Nc2ccc(Cl)cc2)=C(C)N1 (centres unmarked) [RI_35],55.4 % of control,78.6 % of control
Cc1cccc(C(C)C)c1NC(=O)CSc1nc(C)c(C(=O)Nc2ccccc2)c(-c2cccs2)c1C#N [RI_36],35.9 % of control,72.9 % of control
CC1=C(C(=O)Nc2ccc(Cl)cc2)C(c2ccsc2)C(C#N)=C(SCC(=O)Nc2ccc(C)c(Cl)c2)N1 (centres unmarked) [RI_37],64.4 % of control,75.8 % of control
CC1=C(C(=O)Nc2ccccc2)C(c2cccs2)C(C#N)=C(SCC(=O)Nc2cccc(Cl)c2C)N1 (centres unmarked) [RI_38],62.5 % of control,103.4 % of control
CC1=C(C(=O)Nc2ccccc2)C(c2ccsc2)C(C#N)=C(SCC(=O)Nc2cccc(C)c2)N1 (centres unmarked) [RI_39],72 % of control,72 % of control
CC1=C(C(=O)Nc2ccc(Cl)cc2)C(c2ccccc2)C(C#N)=C(SCC(=O)Nc2ccccc2C)N1 (centres unmarked) [RI_40],25.7 % of control,43.2 % of control
CC1=C(C(=O)Nc2ccc(Cl)cc2)C(c2ccccc2)C(C#N)=C(SCC(=O)Nc2ccc(C)cc2)N1 (centres unmarked) [RI_41],36.4 % of control,30.7 % of control
CC1=C(C(=O)Nc2ccc(Cl)cc2)C(c2ccccc2)C(C#N)=C(SCC(=O)Nc2ccccc2)N1 (centres unmarked) [RI_42],27.2 % of control,36.2 % of control
CC1=C(C(=O)Nc2ccc(Cl)cc2)C(c2ccccc2)c2c(sc(C(=O)Nc3cccc(C)c3)c2N)N1 (centres unmarked) [RI_43],61.2 % of control,75.1 % of control
CCc1cccc(NC(=O)CSC2=C(C#N)C(c3ccsc3)C(C(=O)Nc3ccccc3)=C(C)N2)c1 (centres unmarked) [RI_44],93.1 % of control,60.1 % of control
CCc1cccc(NC(=O)CSC2=C(C#N)C(c3cccs3)C(C(=O)Nc3ccccc3)=C(C)N2)c1 (centres unmarked) [RI_45],82.7 % of control,61.3 % of control
CC1=C(C(=O)Nc2ccccc2)C(c2ccsc2)C(C#N)=C(SCC(=O)Nc2ccc(C(C)C)cc2)N1 (centres unmarked) [RI_46],74.4 % of control,70.2 % of control
CC1=C(C(=O)Nc2ccccc2)C(c2cccs2)C(C#N)=C(SCC(=O)Nc2ccc(C(C)C)cc2)N1 (centres unmarked) [RI_47],30.5 % of control,28.1 % of control
